From patent US10202360B2 (CELGENE QUANTICEL RESEARCH, INC., priority 2016, dated 2019)
pIC50: −log10 of the molar value.

Biological target: CREBBP (Homo sapiens (Human), UniProt Q92793)
Assay: In vitro enzyme inhibition assay - CREBBP inhibition (AlphaScreen, biotinylated H4-tetraacetyl peptide)
Format: binding
Settings: Table 28; AlphaScreen, H4-tetraacetyl peptide
In short: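 Displacement of 20 nM biotinylated tetraacetyl-H4 peptide from 50 nM E. coli-expressed His-CREBBP, measured by AlphaScreen after bead equilibration for 2 h.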

Chain of CREBBP (Q92793 1081-1197): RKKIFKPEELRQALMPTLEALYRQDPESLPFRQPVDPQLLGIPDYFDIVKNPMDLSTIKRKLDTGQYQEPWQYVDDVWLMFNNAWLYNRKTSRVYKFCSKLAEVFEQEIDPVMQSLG

pIC50 | SMILES
> 6.30 | CCS(=O)(=O)Nc1nc(Oc2c(C)cccc2Cl)nc(-c2ccc(=O)n(C)c2)n1 [Example 179, Ethanesulfonic acid [4-(2-chloro-6-methyl-phenxoy)-6-(1-methyl-6-oxo-1,6-dihydro-pyridin-3-yl)-[1,3,5]triazin-2-yl]-amide]
> 6.30 | CCCCS(=O)(=O)Nc1nc(Oc2c(F)cccc2F)nc(-c2cc(C)c(=O)n(C)c2)n1 [Example 189, Butane-1-sulfonic acid [4-(2,6-difluoro-phenoxy)-6-(1,5-dimethyl-6-oxo-1,6-dihydro-pyridin-3-yl)-[1,3,5]triazin-2-yl]-amide]
> 6.30 | CCCCS(=O)(=O)Nc1nc(Oc2c(F)cccc2Cl)nc(-c2cc(C)c(=O)n(C)c2)n1 [Example 190, Butane-1-sulfonic acid [4-(2-chloro-6-fluoro-phenoxy)-6-(1,5-dimethyl-6-oxo-1,6-dihydro-pyridin-3-yl)-[1,3,5]triazin-2-yl]-amide]
5.30 to 6.30 | CCS(=O)(=O)Nc1cc(-c2cc(C)c(=O)n(C)c2)nc(-c2ccccc2)n1 [Example 191, Ethanesulfonic acid [6-(1,5-dimethyl-6-oxo-1,6-dihydro-pyridin-3-yl)-2-phenyl-pyrimidin-4-yl]-amide]
> 6.30 | CCS(=O)(=O)Nc1cc(-c2cc(C)c(=O)n(C)c2)nc(-c2ccccc2C)n1 [Example 192, Ethanesulfonic acid [6-(1,5-dimethyl-6-oxo-1,6-dihydro-pyridin-3-yl)-2-o-tolyl-pyrimidin-4-yl]-amide]
> 6.30 | CCS(=O)(=O)Nc1cc(-c2cc(C)c(=O)n(C)c2)nc(-c2ccccc2OC)n1 [Example 193, Ethanesulfonic acid [6-(1,5-dimethyl-6-oxo-1,6-dihydro-pyridin-3-yl)-2-(2-methoxy-phenyl)-pyrimidin-4-yl]-amide]
5.30 to 6.30 | CCS(=O)(=O)Nc1cc(-c2ccc(=O)n(C)c2)nc(-c2ccc(C)cc2OC)n1 [Example 194, Ethanesulfonic acid [2-(2-methoxy-4-methyl-phenyl)-6-(1-methyl-6-oxo-1,6-dihydro-pyridin-3-yl)-pyrimidin-4-yl]-amide]
5.30 to 6.30 | CCS(=O)(=O)Nc1cc(-c2ccc(=O)n(C)c2)nc(-c2cc(C)ccc2OC)n1 [Example 195, Ethanesulfonic acid [2-(2-methoxy-5-methyl-phenyl)-6-(1-methyl-6-oxo-1,6-dihydro-pyridin-3-yl)-pyrimidin-4-yl]-amide]
5.30 to 6.30 | CCCS(=O)(=O)Nc1cc(-c2ccc(=O)n(C)c2)nc(-c2ccccc2OC)n1 [Example 196, Propane-1-sulfonic acid [2-(2-methoxy-phenyl)-6-(1-methyl-6-oxo-1,6-dihydro-pyridin-3-yl)-pyrimidin-4-yl]-amide]
> 6.30 | CCCCS(=O)(=O)Nc1cc(-c2ccc(=O)n(C)c2)nc(-c2ccccc2OC)n1 [Example 197, Butane-1-sulfonic acid [2-(2-methoxy-phenyl)-6-(1-methyl-6-oxo-1,6-dihydro-pyridin-3-yl)-pyrimidin-4-yl]-amide]
> 6.30 | CCS(=O)(=O)Nc1cc(-c2ccc(=O)n(C)c2)nc(-c2ccccc2C#N)n1 [Example 198, Ethanesulfonic acid [2-(2-cyano-phenyl)-6-(1-methyl-6-oxo-1,6-dihydro-pyridin-3-yl)-pyrimidin-4-yl]-amide]
5.30 to 6.30 | CCS(=O)(=O)Nc1cc(-c2ccc(=O)n(C)c2)nc(-c2ccccc2OC)n1 [Example 199, Ethanesulfonic acid [2-(2-methoxy-phenyl)-6-(1-methyl-6-oxo-1,6-dihydro-pyridin-3-yl)-pyrimidin-4-yl]-amide]
> 6.30 | CC[C@H](C)S(=O)(=O)Nc1cc(-c2ccc(=O)n(C)c2)nc(Oc2c(C)cccc2F)n1 [Example 202, (S)-N-(2-(2-fluoro-6-methylphenoxy)-6-(1-methyl-6-oxo-1,6-dihydropyridin-3-yl)pyrimidin-4-yl)butane-2-sulfonamide]
> 6.30 | CC[C@@H](C)S(=O)(=O)Nc1cc(-c2ccc(=O)n(C)c2)nc(Oc2c(C)cccc2F)n1 [Example 203, (R)-N-(2-(2-fluoro-6-methylphenoxy)-6-(1-methyl-6-oxo-1,6-dihydropyridin-3-yl)pyrimidin-4-yl)butane-2-sulfonamide]
> 6.30 | CC[C@@H](C)S(=O)(=O)Nc1cc(-c2ccc(=O)n(C)c2)nc(Oc2c(C)cccc2Cl)n1 [Example 204, Butane-(2R)-sulfonic acid [2-(2-chloro-6-methyl-phenoxy)-6-(1-methyl-6-oxo-1,6-dihydro-pyridin-3-yl)-pyrimidin-4-yl]-amide]
> 6.30 | CC[C@H](C)S(=O)(=O)Nc1cc(-c2ccc(=O)n(C)c2)nc(Oc2c(C)cccc2Cl)n1 [Example 205, Butane-(2S)-sulfonic acid [2-(2-chloro-6-mehtyl-phenoxy)-6-(1-methyl-6-oxo-1,6-dihydro-pyridin-3-yl)-pyrimidin-4-yl]-amide]

The remaining lines, values behind:

SMILES | pIC50
Cc1cccc(F)c1Oc1nc(NS(=O)(=O)C(C)C)nc(-c2ccc(=O)n(C)c2)n1 [Example 176, Propane-2-sulfonic acid [4-(2-fluoro-6-methyl-phenoxy)-6-(1-methyl-6-oxo-1,6-dihydro-pyridin-3-yl)-[1,3,5]triazin-2-yl]-amide] | > 6.30
CCCS(=O)(=O)Nc1nc(Oc2c(C)cccc2F)nc(-c2ccc(=O)n(C)c2)n1 [Example 177, Propane-1-sulfonic acid [4-(2-fluoro-6-methyl-phenoxy)-6-(1-methyl-6-oxo-1,6-dihdyro-pyridin-3-yl)-[1,3,5]triazin-2-yl]-amide] | > 6.30
CCCCS(=O)(=O)Nc1nc(Oc2c(C)cccc2F)nc(-c2ccc(=O)n(C)c2)n1 [Example 178, Butane-1-sulfonic acid [4-(2-fluoro-6-methyl-phenoxy)-6-(1-methyl-6-oxo-1,6-dihydro-pyridin-3-yl)-[1,3,5]triazin-2-yl]-amide] | > 6.30
Cc1cccc(Cl)c1Oc1nc(NS(=O)(=O)C(C)C)nc(-c2ccc(=O)n(C)c2)n1 [Example 180, Propane-2-sulfonic acid [4-(2-chloro-6-methyl-phenoxy)-6-(1-methyl-6-oxo-1,6-dihydro-pyridin-3-yl)-[1,3,5]triazin-2-yl]-amide] | > 6.30
CCCS(=O)(=O)Nc1nc(Oc2c(F)cccc2Cl)nc(-c2ccc(=O)n(C)c2)n1 [Example 181, Propane-1-sulfonic acid [4-(2-chloro-6-fluoro-phenoxy)-6-(1-methyl-6-oxo-1,6-dihydro-pyridin-3-yl)-[1,3,5]triazin-2-yl]-amide] | > 6.30
CCCCS(=O)(=O)Nc1nc(Oc2c(F)cccc2Cl)nc(-c2ccc(=O)n(C)c2)n1 [Example 182, Butane-1-sulfonic acid [4-(2-chloro-6-fluoro-phenoxy)-6-(1-methyl-6-oxo-1,6-dihydro-pyridin-3-yl)-[1,3,5]triazin-2-yl]-amide] | > 6.30
Cc1cccc(F)c1Oc1nc(NS(=O)(=O)CC(C)C)nc(-c2cc(C)c(=O)n(C)c2)n1 [Example 183, 2-Methyl-propane-1-sulfonic acid [4-(1,5-dimethyl-6-oxo-1,6-dihydro-pyridin-3-yl)-6-(2-fluoro-6-methyl-phenoxy)-[1,3,5]triazin-2-yl]-amide] | > 6.30
Cc1cccc(F)c1Oc1nc(NS(=O)(=O)C2CCCC2)nc(-c2cc(C)c(=O)n(C)c2)n1 [Example 184, Cyclopentanesulfonic acid [4-(1,5-dimethyl-6-oxo-1,6-dihydro-pyridin-3-yl)-6-(2-fluoro-6-methyl-phenoxy)-[1,3,5]triazin-2-yl]-amide] | > 6.30
CCCCCS(=O)(=O)Nc1nc(Oc2c(C)cccc2F)nc(-c2cc(C)c(=O)n(C)c2)n1 [Example 185, Pentane-1-sulfonic acid [4-(1,5-dimethyl-6-oxo-1,6-dihydro-pyridin-3-yl)-6-(2-fluoro-6-methyl-phenoxy)-[1,3,5]triazin-2-yl]-amide] | > 6.30
Cc1cccc(F)c1Oc1nc(NS(=O)(=O)CCC(C)C)nc(-c2cc(C)c(=O)n(C)c2)n1 [Example 186, 3-Methyl-butane-1-sulfonic acid [4-(1,5-dimethyl-6-oxo-1,6-dihydro-pyridin-3-yl)-6-(2-fluoro-6-methyl-phenoxy)-[1,3,5]triazin-2-yl]-amide] | > 6.30
CCCCS(=O)(=O)Nc1nc(Oc2c(C)cccc2Cl)nc(-c2cc(C)c(=O)n(C)c2)n1 [Example 188, Butane-1-sulfonic acid [4-(2-chloro-6-methyl-phenoxy)-6-(1,5-dimethyl-6-oxo-1,6-dihydro-pyridin-3-yl)-[1,3,5]triazin-2-yl]-amide] | > 6.30
CCS(=O)(=O)Nc1nc(OC(C)C)nc(-c2ccc(=O)n(C)c2)n1 [Example 200, Ethanesulfonic acid [4-isopropoxy-6-(1-methyl-6-oxo-1,6-dihydro-pyridin-3-yl)-[1,3,5]triazin-2-yl]-amide] | 5.30 to 6.30
CCCS(=O)(=O)Nc1nc(OC(C)C)nc(-c2ccc(=O)n(C)c2)n1 [Example 201, Propane-1-sulfonic acid [4-isopropoxy-6-(1-methyl-6-oxo-1,6-dihydro-pyridin-3-yl)-[1,3,5]triazin-2-yl]-amide] | 5.30 to 6.30
CC[C@H](C)S(=O)(=O)Nc1cc(-c2ccc(=O)n(C)c2)nc(Oc2c(F)cccc2Cl)n1 [Example 206, Butane-(2S)-sulfonic acid [2-(2-chloro-6-fluoro-phenoxy)-6-(1-methyl-6-oxo-1,6-dihydro-pyridin-3-yl)-pyrimidin-4-yl]-amide] | > 6.30
CC[C@@H](C)S(=O)(=O)Nc1cc(-c2ccc(=O)n(C)c2)nc(Oc2c(F)cccc2Cl)n1 [Example 207, Butane-(2R)-sulfonic acid [2-(2-chloro-6-fluoro-phenoxy)-6-(1-methyl-6-oxo-1,6-dihydro-pyridin-3-yl)-pyrimidin-4-yl]-amide] | > 6.30
CC[C@@H](C)S(=O)(=O)Nc1cc(-c2ccc(=O)n(C)c2)nc(Oc2c(F)cccc2OC)n1 [Example 208, Butane-(2R)-sulfonic acid [2-(2-fluoro-6-methoxy-phenoxy)-6-(1-methyl-6-oxo-1,6-dihydro-pyridin-3-yl)-pyrimidin-4-yl]-amide] | > 6.30
